The term IC50 denotes the concentration at which inhibition is half-maximal.

Our source for the IC50 values is US20230203060A1 (GENFLEET THERAPEUTICS (SHANGHAI) INC., priority 2020, published 2023).

Molecules are shown by their SMILES. Like-named read-outs stand apart in the source and are kept apart here.

Experiment [1] deals with KRAS G12C mutant MIA PaCa-2 cells. Nature of the experiment: Cell proliferation inhibition experiment, 3D spheroid, CellTiter-Glo, MIA PaCa-2. In kind it is cell-based, human. To be noted: 3D cell model in 384-well spheroid plate, 5 days, CellTiter-Glo, read-out: MIA-PaCa2 IC50. The procedure, abridged:
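Luminescent ATP read-out (CellTiter-Glo) after 5-day compound treatment of spheroids formed overnight from 200 MIA PaCa-2 cells/well; compounds in 3.16-fold series, 0.1% DMSO final. IC50 derived by four-parameter fit of percent inhibition, normalized to DMSO control and medium blank.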
On the technique in general: Cellular ATP, detected with luciferase, serves as a proxy for viable cell number.

The next experiment addresses T1, KRAS G12C (Homo sapiens, UniProt P01116, G12C).
T1 construct: purchased Reactionbiology
In words: KRAS G12C NEA-HTRF experiment (SOS1-catalyzed displacement of GDP by GTP). It counts as biochemical. The procedure, abridged: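 His-tagged KRAS G12C preloaded with DY647-GDP was preincubated 15 min at 20 °C with compound, then exchanged with SOS1 (0.2 μM working solution) and GTP (200 μM working solution) for 2 h at 20 °C in the dark. HTRF 665/615 nm ratio with anti-His-Tb was normalised to T0 and no-compound controls; IC50 by four-parameter fit.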

Setting [2] is: Homo sapiens, MIA PaCa-2, 120 h.

T1 sequence (P01116 1-188 isoform P01116-2 G12C): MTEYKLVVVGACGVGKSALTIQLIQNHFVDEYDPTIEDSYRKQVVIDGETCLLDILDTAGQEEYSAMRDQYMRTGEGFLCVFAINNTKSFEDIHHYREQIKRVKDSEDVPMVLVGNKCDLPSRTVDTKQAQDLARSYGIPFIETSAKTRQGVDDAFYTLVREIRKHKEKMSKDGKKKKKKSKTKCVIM

For `C=CC(=O)N1CCN2C(=O)c3c(N4CC(N5CCOCC5)CC4(C)C)nc(-c4c(O)cccc4F)c(Cl)c3OC[C@H]2C1` (stereo partly drawn) [Z344, (6aR)-8-acryloyl-4-chloro-1-((2,2-dimethyl-4-morpholinopyrrolidin-1-yl))-3-(2-fluoro-6-hydroxyphenyl)-6,6a,7,8,9,10-hexahydro-12H-pyrazino[2,1-c]pyrido[3,4-f][1,4]oxazepin-12-one], the IC50 in experiment [1] (setting [2]) came to 3 nM; on KRAS G12C, 10 nM.

Consider `C=CC(=O)N1CCN2C(=O)c3c(N4CC[C@H](OC)[C@@H]4C)nc(-c4c(O)cccc4F)c(Cl)c3OC[C@H]2C1` [Z347-1, (6aR)-8-acryloyl-4-chloro-3-(2-fluoro-6-hydroxyphenyl)-1-((2S,3S)-3-methoxy-2-methylpyrrolidin-1-yl)-6,6a,7,8,9,10-hexahydro-12H-pyrazino[2,1-c]pyrido[3,4-f][1,4]oxazepin-12-one], for which the IC50 was determined as 4 nM in experiment [1] (setting [2]) and 12 nM on KRAS G12C.

On to `C=CC(=O)N1CCN2C(=O)c3c(N4CCN(C)C[C@@H]4C)nc(-c4c(F)ccc(F)c4O)c(Cl)c3OC[C@H]2C1` [Z356, (6aR)-8-acryloyl-4-chloro-3-(3,6-difluoro-2-hydroxyphenyl)-1-((S)-2,4-dimethylpiperazin-1-yl)-6,6a,7,8,9,10-hexahydro-12H-pyrazino[2,1-c]pyrido[3,4-f][1,4]oxazepin-12-one], for which the IC50 was 29 nM in experiment [1] (setting [2]) and 161 nM at KRAS G12C.

As to `C=CC(=O)N1CCN2C(=O)c3c(N4C[C@@H](N(C)CCOC)C[C@@H]4C)nc(-c4c(O)cccc4F)c(Cl)c3OC[C@H]2C1` [Z358-1], the IC50 in experiment [1] (setting [2]) was 7.2 nM; at KRAS G12C, 26.4 nM.

`C=CC(=O)N1CCN2C(=O)c3c(N4C[C@@H](OC)C[C@@H]4C)nc(-c4c(O)cccc4F)c(F)c3OC[C@H]2C1` [Z359-1, (6aR)-8-actyloyl-4-fluoro-3-(2-fluoro-6-hydroxyphenyl)-1-((2S,4S)-4-methoxy-2-methylpyrrolidin-1-yl)-6,6a,7,8,9,10-hexahydro-12H-pyrazino[2,1-c]pyrido[3,4-f][1,4]oxazepin-12-one]: the results for the IC50 (in experiment [1] (setting [2]); on KRAS G12C) were 17.6 nM and 83.8 nM, respectively.

Turning to `C=CC(=O)N1CCN2C(=O)c3c(N4CCN(C)C(C)C4C)nc(-c4c(O)cccc4F)c(Cl)c3OC[C@H]2C1` (stereo partly drawn) [Z369, (6aR)-8-acryloyl-4-chloro-3-(2-fluoro-6-hydroxyphenyl)-1-(2,3,4-trimethylpiperazin-1-yl)-6,6a,7,8,9,10-hexahydro-12H-pyrazino[2,1-c]pyrido[3,4-f][1,4]oxazepin-12-one], the half-maximal inhibitory concentration (IC50) in experiment [1] amounted to 6 nM; at KRAS G12C, 68.6 nM.
